SMILES strings stand for the structures. Where a SMILES comes first, the peptide text is derived from it. Bridges are numbered along the chain shown (N, C = ends). [ ]: non-standard residue; d: D form. The star is where a group is joined. Phe(4-COOH) = N[C@@H](Cc1ccc(C(=O)O)cc1)C(=O)O; Bip = N[C@@H](Cc1ccc(-c2ccccc2)cc1)C(=O)O; Cha = N[C@@H](CC1CCCCC1)C(=O)O; Carboxymethyl = O=C(O)C*; NMeA = CN[C@@H](C)C(=O)O; Orn = NCCC[C@H](N)C(=O)O; Aun = NCCCCCCCCCCC(=O)O; Dab = NCC[C@H](N)C(=O)O; Dap = NC[C@H](N)C(=O)O

One may read the IC50 as the concentration that inhibits the measured activity by half.

T1 sequence (Q15116 25-288): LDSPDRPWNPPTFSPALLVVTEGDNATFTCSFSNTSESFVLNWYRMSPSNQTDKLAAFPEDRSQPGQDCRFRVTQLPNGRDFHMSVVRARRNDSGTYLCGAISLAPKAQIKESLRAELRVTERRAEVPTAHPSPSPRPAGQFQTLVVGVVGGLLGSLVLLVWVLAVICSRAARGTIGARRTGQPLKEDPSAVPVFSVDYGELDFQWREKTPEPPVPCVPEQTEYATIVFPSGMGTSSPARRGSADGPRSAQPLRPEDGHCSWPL

The test addresses T1, PD-1/PD-L1 interaction (PE-labeled human PD-L1-Ig binding to Jurkat cell line over-expressing human PD-1) (Homo sapiens, UniProt Q15116).
T1 construct: expressed in transfected cells; host or cells: Jurkat
Description: Jurkat-PD-1 Cell Binding High-Content Screening Assay (CBA). Conditions: Jurkat-hPD-1 cells, PE-labeled PD-L1-Ig 20 nM final; read-out: Jurkat HPD1 PDL1 IC50. The protocol: Example 2: Jurkat-PD-1 Cell Binding High-Content Screening Assay (CBA)
Phycoerythrin (PE) was covalently linked to the Ig epitope tag of human PD-L1-Ig and fluorescently-labeled PD-L1-Ig was used for binding studies with a Jurkat cell line over-expressing human PD-1 (Jurkat-PD-1). Briefly, 8×10^3 Jurkat-hPD-1 cells were seeded into 384 well plates in 20 μl of DMEM supplemented with 10% fetal calf serum. 100 nl of compound was added to cells followed by incubation at 37° C. for 2 hours. Then, 5 μl of PE-labeled PD-L1-Ig (20 nM final), diluted in DMEM supplemented with 10% fetal calf serum. After 1 hour incubation, cells were fixed with […] in dPBS containing 10 μg/ml Hoechst 33342 and then washed 3× in 100 μl dPBS. Data was collected and processed using a Cell Insight NXT High Content Imager and associated software.
As to `CC(C)C[C@@H]1NC(=O)[C@H](Cc2c[nH]c3ccccc23)NC(=O)[C@H](CC(=O)O)NC(=O)[C@H](Cc2ccc(C(=O)O)cc2)NC(=O)[C@H](Cc2ccc(OCC(=O)O)cc2)NC(=O)CSC[C@@H](C(=O)NCC(=O)N[C@@H](CCN)C(=O)NCC(=O)NCCCCCCCCCCC(=O)O)NC(=O)[C@H](CO)NC(=O)[C@H](C(C)C)NC(=O)[C@H](CC2CCCCC2)NC(=O)[C@H](CCN)NC(=O)[C@@H](CC(C)C)NC(=O)[C@H](C)N(C)C(=O)[C@H](C(C)C)NC(=O)[C@H](Cc2ccc(-c3ccccc3)cc2)NC1=O` [Example 1029] ({CH2CO}-Y(Carboxymethyl)[Phe(4-COOH)]DWL[Bip]V[NMeA][dL][Dab][Cha]VSCG[Dab]G[Aun]-OH; thioether N-14), the IC50 came out at 9 nM.

Consider `CC(C)C[C@@H]1NC(=O)[C@H](Cc2c[nH]c3ccccc23)NC(=O)[C@H](CC(=O)O)NC(=O)[C@H](Cc2ccc(C(=O)O)cc2)NC(=O)[C@H](Cc2ccc(OCC(=O)O)cc2)NC(=O)CSC[C@@H](C(=O)NCC(=O)N[C@@H](CCCN)C(=O)NCC(=O)NCCCCCCCCCCC(=O)O)NC(=O)[C@H](CO)NC(=O)[C@H](C(C)C)NC(=O)[C@H](CC2CCCCC2)NC(=O)[C@H](CCN)NC(=O)[C@@H](CC(C)C)NC(=O)[C@H](C)N(C)C(=O)[C@H](C(C)C)NC(=O)[C@H](Cc2ccc(-c3ccccc3)cc2)NC1=O` [Example 1030] ({CH2CO}-Y(Carboxymethyl)[Phe(4-COOH)]DWL[Bip]V[NMeA][dL][Dab][Cha]VSCG[Orn]G[Aun]-OH; thioether N-14), for which the half-maximal inhibitory concentration (IC50) was 10.6 nM.

On to `CC(C)C[C@@H]1NC(=O)[C@H](Cc2c[nH]c3ccccc23)NC(=O)[C@H](CC(=O)O)NC(=O)[C@H](Cc2ccc(C(=O)O)cc2)NC(=O)[C@H](Cc2ccc(OCC(=O)O)cc2)NC(=O)CSC[C@@H](C(=O)NCC(=O)N[C@@H](CCCCN)C(=O)NCC(=O)NCCCCCCCCCCC(=O)O)NC(=O)[C@H](CO)NC(=O)[C@H](C(C)C)NC(=O)[C@H](CC2CCCCC2)NC(=O)[C@H](CCN)NC(=O)[C@@H](CC(C)C)NC(=O)[C@H](C)N(C)C(=O)[C@H](C(C)C)NC(=O)[C@H](Cc2ccc(-c3ccccc3)cc2)NC1=O` [Example 1031] ({CH2CO}-Y(Carboxymethyl)[Phe(4-COOH)]DWL[Bip]V[NMeA][dL][Dab][Cha]VSCGKG[Aun]-OH; thioether N-14), for which the IC50 amounted to 10.7 nM.

As to `CC(C)C[C@@H]1NC(=O)[C@H](Cc2c[nH]c3ccccc23)NC(=O)[C@H](CC(=O)O)NC(=O)[C@H](Cc2ccc(C(=O)O)cc2)NC(=O)[C@H](Cc2ccc(OCC(=O)O)cc2)NC(=O)CSC[C@@H](C(=O)NCC(=O)N[C@@H](CCC(=O)O)C(=O)NCC(=O)NCCCCCCCCCCC(=O)O)NC(=O)[C@H](CO)NC(=O)[C@H](C(C)C)NC(=O)[C@H](CC2CCCCC2)NC(=O)[C@H](CCN)NC(=O)[C@@H](CC(C)C)NC(=O)[C@H](C)N(C)C(=O)[C@H](C(C)C)NC(=O)[C@H](Cc2ccc(-c3ccccc3)cc2)NC1=O` [Example 1032] ({CH2CO}-Y(Carboxymethyl)[Phe(4-COOH)]DWL[Bip]V[NMeA][dL][Dab][Cha]VSCGEG[Aun]-OH; thioether N-14), the IC50 came out at 15.9 nM.

Regarding `CC(C)C[C@@H]1NC(=O)[C@H](Cc2c[nH]c3ccccc23)NC(=O)[C@H](CC(=O)O)NC(=O)[C@H](Cc2ccc(C(=O)O)cc2)NC(=O)[C@H](Cc2ccc(OCC(=O)O)cc2)NC(=O)CSC[C@@H](C(=O)NCC(=O)N[C@@H](CC(=O)O)C(=O)NCC(=O)NCCCCCCCCCCC(=O)O)NC(=O)[C@H](CO)NC(=O)[C@H](C(C)C)NC(=O)[C@H](CC2CCCCC2)NC(=O)[C@H](CCN)NC(=O)[C@@H](CC(C)C)NC(=O)[C@H](C)N(C)C(=O)[C@H](C(C)C)NC(=O)[C@H](Cc2ccc(-c3ccccc3)cc2)NC1=O` [Example 1033] ({CH2CO}-Y(Carboxymethyl)[Phe(4-COOH)]DWL[Bip]V[NMeA][dL][Dab][Cha]VSCGDG[Aun]-OH; thioether N-14), the IC50 came out at 20.5 nM.

Consider `CC(C)C[C@@H]1NC(=O)[C@H](Cc2c[nH]c3ccccc23)NC(=O)[C@H](CC(=O)O)NC(=O)[C@H](Cc2ccc(C(=O)O)cc2)NC(=O)[C@H](Cc2ccc(OCC(=O)O)cc2)NC(=O)CSC[C@@H](C(=O)N[C@@H](CCC(=O)O)C(=O)NCC(=O)NCCCCCCCCCCC(=O)O)NC(=O)[C@H](CO)NC(=O)[C@H](C(C)C)NC(=O)[C@H](CC2CCCCC2)NC(=O)[C@H](CCN)NC(=O)[C@@H](CC(C)C)NC(=O)[C@H](C)N(C)C(=O)[C@H](C(C)C)NC(=O)[C@H](Cc2ccc(-c3ccccc3)cc2)NC1=O` [Example 1035] ({CH2CO}-Y(Carboxymethyl)[Phe(4-COOH)]DWL[Bip]V[NMeA][dL][Dab][Cha]VSCEG[Aun]-OH; thioether N-14), for which the half-maximal inhibitory concentration (IC50) was found to be 19.4 nM.

With `CC(C)C[C@@H]1NC(=O)[C@H](Cc2c[nH]c3ccccc23)NC(=O)[C@H](CC(=O)O)NC(=O)[C@H](Cc2ccc(C(=O)O)cc2)NC(=O)[C@H](Cc2ccc(OCC(=O)O)cc2)NC(=O)CSC[C@@H](C(=O)NCC(=O)N[C@@H](CN)C(=O)NCCCCCCCCCCC(=O)O)NC(=O)[C@H](CO)NC(=O)[C@H](C(C)C)NC(=O)[C@H](CC2CCCCC2)NC(=O)[C@H](CCN)NC(=O)[C@@H](CC(C)C)NC(=O)[C@H](C)N(C)C(=O)[C@H](C(C)C)NC(=O)[C@H](Cc2ccc(-c3ccccc3)cc2)NC1=O` [Example 1036] ({CH2CO}-Y(Carboxymethyl)[Phe(4-COOH)]DWL[Bip]V[NMeA][dL][Dab][Cha]VSCG[Dap][Aun]-OH; thioether N-14), the half-inhibitory concentration (IC50) is 11.5 nM.

Regarding `CC(C)C[C@@H]1NC(=O)[C@H](Cc2c[nH]c3ccccc23)NC(=O)[C@H](CC(=O)O)NC(=O)[C@H](Cc2ccc(C(=O)O)cc2)NC(=O)[C@H](Cc2ccc(OCC(=O)O)cc2)NC(=O)CSC[C@@H](C(=O)NCC(=O)N[C@@H](CCN)C(=O)NCCCCCCCCCCC(=O)O)NC(=O)[C@H](CO)NC(=O)[C@H](C(C)C)NC(=O)[C@H](CC2CCCCC2)NC(=O)[C@H](CCN)NC(=O)[C@H](CC(C)C)NC(=O)[C@H](C)N(C)C(=O)[C@H](C(C)C)NC(=O)[C@H](Cc2ccc(-c3ccccc3)cc2)NC1=O` [Example 1037] ({CH2CO}-Y(Carboxymethyl)[Phe(4-COOH)]DWL[Bip]V[NMeA]L[Dab][Cha]VSCG[Dab][Aun]-OH; thioether N-14), the IC50 was determined as 13.6 nM.

For `CC(C)C[C@@H]1NC(=O)[C@H](Cc2c[nH]c3ccccc23)NC(=O)[C@H](CC(=O)O)NC(=O)[C@H](Cc2ccc(C(=O)O)cc2)NC(=O)[C@H](Cc2ccc(OCC(=O)O)cc2)NC(=O)CSC[C@@H](C(=O)NCC(=O)N[C@@H](CCCN)C(=O)NCCCCCCCCCCC(=O)O)NC(=O)[C@H](CO)NC(=O)[C@H](C(C)C)NC(=O)[C@H](CC2CCCCC2)NC(=O)[C@H](CCN)NC(=O)[C@H](CC(C)C)NC(=O)[C@H](C)N(C)C(=O)[C@H](C(C)C)NC(=O)[C@H](Cc2ccc(-c3ccccc3)cc2)NC1=O` [Example 1038] ({CH2CO}-Y(Carboxymethyl)[Phe(4-COOH)]DWL[Bip]V[NMeA]L[Dab][Cha]VSCG[Orn][Aun]-OH; thioether N-14), the half-inhibitory concentration (IC50) amounted to 13.2 nM.

As for `CC(C)C[C@@H]1NC(=O)[C@H](Cc2c[nH]c3ccccc23)NC(=O)[C@H](CC(=O)O)NC(=O)[C@H](Cc2ccc(C(=O)O)cc2)NC(=O)[C@H](Cc2ccc(OCC(=O)O)cc2)NC(=O)CSC[C@@H](C(=O)NCC(=O)N[C@@H](CCCCN)C(=O)NCCCCCCCCCCC(=O)O)NC(=O)[C@H](CO)NC(=O)[C@H](C(C)C)NC(=O)[C@H](CC2CCCCC2)NC(=O)[C@H](CCN)NC(=O)[C@@H](CC(C)C)NC(=O)[C@H](C)N(C)C(=O)[C@H](C(C)C)NC(=O)[C@H](Cc2ccc(-c3ccccc3)cc2)NC1=O` [Example 1039] ({CH2CO}-Y(Carboxymethyl)[Phe(4-COOH)]DWL[Bip]V[NMeA][dL][Dab][Cha]VSCGK[Aun]-OH; thioether N-14), the concentration for half-maximal inhibition (IC50) is 12.8 nM.

For the molecule `CC(C)C[C@@H]1NC(=O)[C@H](Cc2c[nH]c3ccccc23)NC(=O)[C@H](CC(=O)O)NC(=O)[C@H](Cc2ccc(C(=O)O)cc2)NC(=O)[C@H](Cc2ccc(OCC(=O)O)cc2)NC(=O)CSC[C@@H](C(=O)NCC(=O)N[C@@H](CCC(=O)O)C(=O)NCCCCCCCCCCC(=O)O)NC(=O)[C@H](CO)NC(=O)[C@H](C(C)C)NC(=O)[C@H](CC2CCCCC2)NC(=O)[C@H](CCN)NC(=O)[C@@H](CC(C)C)NC(=O)[C@H](C)N(C)C(=O)[C@H](C(C)C)NC(=O)[C@H](Cc2ccc(-c3ccccc3)cc2)NC1=O` [Example 1040] ({CH2CO}-Y(Carboxymethyl)[Phe(4-COOH)]DWL[Bip]V[NMeA][dL][Dab][Cha]VSCGE[Aun]-OH; thioether N-14), the IC50 worked out at 14 nM.

As to `CC(C)C[C@@H]1NC(=O)[C@H](Cc2c[nH]c3ccccc23)NC(=O)[C@H](CC(=O)O)NC(=O)[C@H](Cc2ccc(C(=O)O)cc2)NC(=O)[C@H](Cc2ccc(OCC(=O)O)cc2)NC(=O)CSC[C@@H](C(=O)NCC(=O)N[C@@H](CC(=O)O)C(=O)NCCCCCCCCCCC(=O)O)NC(=O)[C@H](CO)NC(=O)[C@H](C(C)C)NC(=O)[C@H](CC2CCCCC2)NC(=O)[C@H](CCN)NC(=O)[C@@H](CC(C)C)NC(=O)[C@H](C)N(C)C(=O)[C@H](C(C)C)NC(=O)[C@H](Cc2ccc(-c3ccccc3)cc2)NC1=O` [Example 1041] ({CH2CO}-Y(Carboxymethyl)[Phe(4-COOH)]DWL[Bip]V[NMeA][dL][Dab][Cha]VSCGD[Aun]-OH; thioether N-14), the 50% inhibitory concentration (IC50) was found to be 13.8 nM.

The values are drawn from patent publication US20260070945A1, “MACROCYCLIC IMMUNOMODULATORS” (Bristol-Myers Squibb Company, priority 2022, published 2026).
